Columns and labels:
[1] = Substrate activity at ADH101 (unknown origin) assessed as specific enzyme activity using NADH as cofactor at 2.5 to 10 mM measured for 30 mins in presence of 20% hexane-Tris HCL buffer by UV-Vis spectroscopy analysis; conditions: Homo sapiens, dose 2.5-10 mM
[2] = Substrate activity at ADH105 (unknown origin) assessed as specific enzyme activity using NADH as cofactor at 2.5 to 10 mM measured for 30 mins in presence of 20% hexane-Tris HCL buffer by UV-Vis spectroscopy analysis; conditions: dose 2.5-10 mM
[3] = Substrate activity at ADH19 (unknown origin) assessed as specific enzyme activity using NADPH as cofactor at 2.5 to 10 mM measured for 30 mins in presence of Tris HCL buffer by UV-Vis spectroscopy analysis; conditions: Homo sapiens, dose 2.5-10 mM
[4] = Substrate activity at ADH20 (unknown origin) assessed as specific enzyme activity using NADPH as cofactor at 2.5 to 10 mM measured for 30 mins in presence of Tris HCL buffer by UV-Vis spectroscopy analysis; conditions: Homo sapiens, dose 2.5-10 mM
[5] = Substrate activity at ADH61 (unknown origin) assessed as specific enzyme activity using NADPH as cofactor at 2.5 to 10 mM measured for 30 mins in presence of Tris HCL buffer by UV-Vis spectroscopy analysis; conditions: Homo sapiens, dose 2.5-10 mM
[6] = Substrate activity at ADH150 (unknown origin) assessed as specific enzyme activity using NADPH as cofactor at 2.5 to 10 mM measured for 30 mins in presence of Tris HCL buffer by UV-Vis spectroscopy analysis; conditions: Homo sapiens, dose 2.5-10 mM
[7] = Substrate activity at ADH101 (unknown origin) assessed as specific enzyme activity using NADH as cofactor at 2.5 to 10 mM measured for 30 mins in presence of Tris HCL buffer by UV-Vis spectroscopy analysis; conditions: dose 2.5-10 mM
[8] = Substrate activity at ADH105 (unknown origin) assessed as specific enzyme activity using NADH as cofactor at 2.5 to 10 mM measured for 30 mins in presence of Tris HCL buffer by UV-Vis spectroscopy analysis; conditions: Homo sapiens, dose 2.5-10 mM

## CC(=O)C1CC1
[1]
  Activity: 82.8 nmol/min/mg
[2]
  Activity: 98.2 nmol/min/mg

## CC(C)(C)NCC(=O)c1cc(Cl)c(N)c(Cl)c1
[3]
  Activity: 10.4 nmol/min/mg
[4]
  Activity: 18.8 nmol/min/mg
[5]
  Activity: 29 nmol/min/mg
[6]
  Activity: 6.55 nmol/min/mg
[2]
  Activity: 34.6 nmol/min/mg

## CC(=O)c1ccc(Br)nc1
[1]
  Activity: 33.2 nmol/min/mg
[2]
  Activity: 269 nmol/min/mg

## CC(=O)c1ccc(Br)cc1
[7]
  Activity: 38.1 nmol/min/mg
[8]
  Activity: 56.1 nmol/min/mg
[1]
  Activity: 73.1 nmol/min/mg
[2]
  Activity: 158 nmol/min/mg

## CC(=O)CCc1ccccc1
[7]
  Activity: 109 nmol/min/mg
[1]
  Activity: 95.7 nmol/min/mg
[2]
  Activity: 364 nmol/min/mg

## COc1cc(OC)cc(C(C)=O)c1
[1]
  Activity: 59.2 nmol/min/mg
[2]
  Activity: 363 nmol/min/mg

## CNCC(=O)c1cccc(O)c1
[8]
  Activity: 20.8 nmol/min/mg
[3]
  Activity: 6.78 nmol/min/mg
[4]
  Activity: 67.2 nmol/min/mg
[6]
  Activity: 38.6 nmol/min/mg
[1]
  Activity: 12.4 nmol/min/mg
[2]
  Activity: 17.4 nmol/min/mg

## CC(=O)c1ccc(Br)cc1O
[7]
  Activity: 112 nmol/min/mg
[1]
  Activity: 10 nmol/min/mg
[2]
  Activity: 27.2 nmol/min/mg

## CC(=O)c1ccc2c(c1)OCO2
[7]
  Activity: 17.7 nmol/min/mg
[8]
  Activity: 70.1 nmol/min/mg
[1]
  Activity: 34.2 nmol/min/mg
[2]
  Activity: 189 nmol/min/mg

## COc1ccc(C(C)=O)cc1
[1]
  Activity: 24.6 nmol/min/mg
[2]
  Activity: 221 nmol/min/mg

## O=C(CCl)c1ccc(F)c(F)c1
[7]
  Activity: 83.1 nmol/min/mg
[8]
  Activity: 131 nmol/min/mg
[1]
  Activity: 87.1 nmol/min/mg
[2]
  Activity: 112 nmol/min/mg

## CC(=O)c1ccccc1
[7]
  Activity: 43.1 nmol/min/mg
[8]
  Activity: 142 nmol/min/mg
[1]
  Activity: 54.1 nmol/min/mg
[2]
  Activity: 99.1 nmol/min/mg

## COc1cc(C(C)=O)cc(OC)c1OC
[7]
  Activity: 11.7 nmol/min/mg
[8]
  Activity: 154 nmol/min/mg
[2]
  Activity: 89.9 nmol/min/mg

## CC(=O)c1ccc(Br)cc1F
[7]
  Activity: 15.9 nmol/min/mg
[1]
  Activity: 57.7 nmol/min/mg
[2]
  Activity: 366 nmol/min/mg

## CC(=O)c1ccc(F)nc1
[7]
  Activity: 24.7 nmol/min/mg
[8]
  Activity: 182 nmol/min/mg
[1]
  Activity: 51 nmol/min/mg
[2]
  Activity: 137 nmol/min/mg

## COc1cccc(C(C)=O)c1
[1]
  Activity: 13.8 nmol/min/mg
[2]
  Activity: 397 nmol/min/mg

## CC(=O)C1CCCC1
[1]
  Activity: 123 nmol/min/mg
[2]
  Activity: 218 nmol/min/mg

## CC(=O)c1ccc2ccccc2c1
[7]
  Activity: 7.68 nmol/min/mg
[1]
  Activity: 37 nmol/min/mg
[2]
  Activity: 54 nmol/min/mg

## CC(=O)c1ccc(C(F)(F)F)nc1
[1]
  Activity: 80.9 nmol/min/mg
[2]
  Activity: 210 nmol/min/mg

## CC(=O)c1ccc(I)cc1
[1]
  Activity: 51.3 nmol/min/mg
[2]
  Activity: 117 nmol/min/mg

## COc1ccc(C(C)=O)cc1OC
[1]
  Activity: 59.8 nmol/min/mg
[2]
  Activity: 220 nmol/min/mg

## O=C(CBr)c1ccccc1
[7]
  Activity: 44.6 nmol/min/mg
[8]
  Activity: 18.7 nmol/min/mg
[1]
  Activity: 89.2 nmol/min/mg
[2]
  Activity: 337 nmol/min/mg

## CC(=O)c1ccc(N)cc1
[7]
  Activity: 5.03 nmol/min/mg
[8]
  Activity: 21.3 nmol/min/mg
[1]
  Activity: 43.9 nmol/min/mg
[2]
  Activity: 80.4 nmol/min/mg

## CC(=O)c1ccc(Br)c(F)c1
[7]
  Activity: 46.3 nmol/min/mg
[1]
  Activity: 103 nmol/min/mg
[2]
  Activity: 242 nmol/min/mg

## CC(=O)c1cccc(O)c1
[7]
  Activity: 4.76 nmol/min/mg
[8]
  Activity: 82.4 nmol/min/mg
[1]
  Activity: 14.8 nmol/min/mg
[2]
  Activity: 157 nmol/min/mg

## CCc1ccc(OC)c(C(C)=O)c1
[7]
  Activity: 49.8 nmol/min/mg
[8]
  Activity: 14.1 nmol/min/mg
[1]
  Activity: 52.9 nmol/min/mg
[2]
  Activity: 64 nmol/min/mg

## CC(=O)c1ccccc1Br
[7]
  Activity: 75.1 nmol/min/mg
[8]
  Activity: 6.37 nmol/min/mg
[1]
  Activity: 38 nmol/min/mg
[2]
  Activity: 39.5 nmol/min/mg

## CC(=O)c1cnccn1
[1]
  Activity: 53.2 nmol/min/mg
[2]
  Activity: 185 nmol/min/mg

## CC(=O)c1ccccc1O
[7]
  Activity: 11.3 nmol/min/mg
[8]
  Activity: 23.1 nmol/min/mg

## O=c1[nH]c(=O)c2nc[nH]c2[nH]1
[7]
  Activity: 319 nmol/min/mg
[8]
  Activity: 9.28 nmol/min/mg
[2]
  Activity: 15.9 nmol/min/mg

## CC(=O)c1cc[nH]n1
[3]
  Activity: 10.3 nmol/min/mg
[4]
  Activity: 24.1 nmol/min/mg
[5]
  Activity: 10.7 nmol/min/mg
[6]
  Activity: 11.8 nmol/min/mg
[1]
  Activity: 5.6 nmol/min/mg
[2]
  Activity: 20.7 nmol/min/mg

## CC(=O)c1cccc(C#N)c1
[1]
  Activity: 57.4 nmol/min/mg
[2]
  Activity: 173 nmol/min/mg

## CC(=O)c1ccc(O)cc1
[8]
  Activity: 39.5 nmol/min/mg
[3]
  Activity: 12.8 nmol/min/mg
[5]
  Activity: 12.7 nmol/min/mg
[2]
  Activity: 31.5 nmol/min/mg

## O=C(c1ccccc1)C(F)(F)F
[7]
  Activity: 9.22 nmol/min/mg
[8]
  Activity: 19.1 nmol/min/mg
[1]
  Activity: 46.2 nmol/min/mg
[2]
  Activity: 29.4 nmol/min/mg

## CCOc1ccc(C(C)=O)cc1
[7]
  Activity: 4.37 nmol/min/mg
[8]
  Activity: 81.1 nmol/min/mg
[1]
  Activity: 19.9 nmol/min/mg
[2]
  Activity: 196 nmol/min/mg

## CC(=O)C1CCCCC1
[7]
  Activity: 167 nmol/min/mg
[8]
  Activity: 233 nmol/min/mg
[1]
  Activity: 52.3 nmol/min/mg
[2]
  Activity: 112 nmol/min/mg

## CC(=O)c1ccc(C[C@H](N)C(=O)O)cc1
[3]
  Activity: 7.76 nmol/min/mg
[4]
  Activity: 55.7 nmol/min/mg
[5]
  Activity: 123 nmol/min/mg
[6]
  Activity: 33.7 nmol/min/mg
[1]
  Activity: 10.2 nmol/min/mg
[2]
  Activity: 62.2 nmol/min/mg

## CC(=O)c1cncnc1
[1]
  Activity: 45.2 nmol/min/mg
[2]
  Activity: 50.5 nmol/min/mg

## CC(=O)c1nccn1C
[1]
  Activity: 14.7 nmol/min/mg
[2]
  Activity: 20.7 nmol/min/mg

## COc1ccccc1C(C)=O
[7]
  Activity: 2.46 nmol/min/mg
[8]
  Activity: 13.4 nmol/min/mg
[2]
  Activity: 83 nmol/min/mg

## CC(=O)c1cccc(Br)c1
[7]
  Activity: 19.9 nmol/min/mg
[8]
  Activity: 1.9 nmol/min/mg
[1]
  Activity: 12.2 nmol/min/mg
[2]
  Activity: 142 nmol/min/mg

## CC(=O)c1ccc([N+](=O)[O-])cc1
[7]
  Activity: 99.9 nmol/min/mg
[1]
  Activity: 130 nmol/min/mg
[2]
  Activity: 593 nmol/min/mg

## CC(=O)c1ccc(F)cc1
[7]
  Activity: 26.4 nmol/min/mg
[8]
  Activity: 86.4 nmol/min/mg
[1]
  Activity: 22.9 nmol/min/mg
[2]
  Activity: 122 nmol/min/mg

## O=C1CN2CCC1CC2
[8]
  Activity: 13 nmol/min/mg
[1]
  Activity: 85.3 nmol/min/mg
[2]
  Activity: 23.4 nmol/min/mg

## CCCCCCCCC(C)=O
[7]
  Activity: 39.5 nmol/min/mg
[8]
  Activity: 8.95 nmol/min/mg
[1]
  Activity: 25.7 nmol/min/mg
[2]
  Activity: 37.1 nmol/min/mg

## CC(=O)c1cnc2ccccc2c1
[1]
  Activity: 13.7 nmol/min/mg
[2]
  Activity: 229 nmol/min/mg

## CC(=O)/C=C/c1ccccc1
[7]
  Activity: 60.7 nmol/min/mg
[8]
  Activity: 6.97 nmol/min/mg
[1]
  Activity: 67.2 nmol/min/mg
[2]
  Activity: 62.1 nmol/min/mg

## CC(=O)c1ccc(Cl)nc1
[7]
  Activity: 32.2 nmol/min/mg
[8]
  Activity: 371 nmol/min/mg
[1]
  Activity: 62.5 nmol/min/mg
[2]
  Activity: 92 nmol/min/mg

## COc1ccc2c(c1)CCCC2=O
[7]
  Activity: 6.9 nmol/min/mg
[8]
  Activity: 9 nmol/min/mg
[3]
  Activity: 14.3 nmol/min/mg
[4]
  Activity: 31.3 nmol/min/mg
[5]
  Activity: 56.4 nmol/min/mg
[6]
  Activity: 7.83 nmol/min/mg
[2]
  Activity: 36 nmol/min/mg

## CC(=O)c1ccc(B2OC(C)(C)C(C)(C)O2)cc1
[1]
  Activity: 465 nmol/min/mg
[2]
  Activity: 87 nmol/min/mg

## CC(=O)c1cc(C(F)(F)F)cc(C(F)(F)F)c1
[7]
  Activity: 4.51 nmol/min/mg
[8]
  Activity: 29.6 nmol/min/mg
[1]
  Activity: 17.4 nmol/min/mg
[2]
  Activity: 57.3 nmol/min/mg

## CC(=O)c1cc(F)ccc1O
[1]
  Activity: 42.8 nmol/min/mg

## COc1ccc2[nH]cc(CCNC(C)=O)c2c1
[2]
  Activity: 21.7 nmol/min/mg

## O=C(c1ccccc1)c1ccccc1
[7]
  Activity: 35.7 nmol/min/mg
[8]
  Activity: 12.8 nmol/min/mg
[4]
  Activity: 41.1 nmol/min/mg
[6]
  Activity: 69.9 nmol/min/mg
[1]
  Activity: 73.9 nmol/min/mg
[2]
  Activity: 14.3 nmol/min/mg

## CC(=O)c1ccccn1
[7]
  Activity: 22.2 nmol/min/mg
[8]
  Activity: 70.4 nmol/min/mg
[1]
  Activity: 35.5 nmol/min/mg
[2]
  Activity: 60.3 nmol/min/mg

## CC(=O)c1ccc(NS(C)(=O)=O)cc1
[2]
  Activity: 203 nmol/min/mg

## CC(=O)Cc1ccccc1
[7]
  Activity: 5.98 nmol/min/mg
[8]
  Activity: 274 nmol/min/mg
[1]
  Activity: 22.2 nmol/min/mg
[2]
  Activity: 239 nmol/min/mg

## CC(=O)c1cccnc1
[7]
  Activity: 9.45 nmol/min/mg
[8]
  Activity: 121 nmol/min/mg
[1]
  Activity: 34 nmol/min/mg
[2]
  Activity: 163 nmol/min/mg

From ChEMBL document CHEMBL5252631, “A pharmacophore-based approach to demonstrating the scope of alcohol dehydrogenases” (Bioorg Med Chem, 2023)
